Key:
[1] = xn = mol fraction of the nth substance listed; settings: 101.32 kPa, Liquid, Vibrating tube method
[2] = excess molar enthalpy (molar enthalpy of mixing); xn = mol fraction of the nth substance listed; settings: 291.15 K, 101 kPa, Liquid, Calvet calorimetry

CCCCCCCCC [nonane] + CCOC(C)=O
[1]
Settings	mass density [kg/m3]
291.15 K, x2 = 0	719.2
291.15 K, x2 = 0.0328	721.88
291.15 K, x2 = 0.0796	726
291.15 K, x2 = 0.1292	730.54
291.15 K, x2 = 0.2225	740.13
291.15 K, x2 = 0.3076	750
291.15 K, x2 = 0.3932	761.25
291.15 K, x2 = 0.4659	771.77
291.15 K, x2 = 0.5694	788.99
291.15 K, x2 = 0.6015	794.91
291.15 K, x2 = 0.6514	804.7
291.15 K, x2 = 0.7041	815.84
291.15 K, x2 = 0.7547	827.59
291.15 K, x2 = 0.8076	840.96
291.15 K, x2 = 0.8502	852.64
291.15 K, x2 = 0.8954	866.2
291.15 K, x2 = 0.9307	877.58
291.15 K, x2 = 0.9918	899.59
298.15 K, x2 = 0	713.85
298.15 K, x2 = 0.0652	719.2
298.15 K, x2 = 0.1102	723.17
298.15 K, x2 = 0.1906	730.94
298.15 K, x2 = 0.2667	739.14
298.15 K, x2 = 0.3377	747.65
298.15 K, x2 = 0.4128	757.7
298.15 K, x2 = 0.4737	766.6
298.15 K, x2 = 0.5212	774.12
298.15 K, x2 = 0.5875	785.5
298.15 K, x2 = 0.6305	793.54
298.15 K, x2 = 0.6743	802.32
298.15 K, x2 = 0.7212	812.53
298.15 K, x2 = 0.767	823.2
298.15 K, x2 = 0.8024	832.16
298.15 K, x2 = 0.8428	843.01
298.15 K, x2 = 0.8654	849.38
298.15 K, x2 = 0.9419	873.16
298.15 K, x2 = 0.9564	878.07
318.15 K, x2 = 0	698.09
318.15 K, x2 = 0.0372	700.83
318.15 K, x2 = 0.1287	708.3
318.15 K, x2 = 0.2206	717
318.15 K, x2 = 0.3125	726.84
318.15 K, x2 = 0.3941	736.68
318.15 K, x2 = 0.4659	746.38
318.15 K, x2 = 0.5311	756.19
318.15 K, x2 = 0.5965	767.1
318.15 K, x2 = 0.6714	781.02
318.15 K, x2 = 0.7111	789.15
318.15 K, x2 = 0.7598	799.77
318.15 K, x2 = 0.8122	812.28
318.15 K, x2 = 0.8596	824.75
318.15 K, x2 = 0.8955	835.04
318.15 K, x2 = 0.936	847.56
318.15 K, x2 = 0.9808	862.66
328.15 K, x2 = 0	690.4
328.15 K, x2 = 0.0202	691.7
328.15 K, x2 = 0.1246	699.9
328.15 K, x2 = 0.2225	708.81
328.15 K, x2 = 0.3109	717.88
328.15 K, x2 = 0.3923	727.35
328.15 K, x2 = 0.4644	736.84
328.15 K, x2 = 0.5377	747.63
328.15 K, x2 = 0.6125	759.98
328.15 K, x2 = 0.7233	781.1
328.15 K, x2 = 0.7593	788.8
328.15 K, x2 = 0.8102	800.56
328.15 K, x2 = 0.8505	810.9
328.15 K, x2 = 0.8934	822.54
328.15 K, x2 = 0.9507	840.17
328.15 K, x2 = 0.9876	852.64

[2]
Settings	excess molar enthalpy [kcal/mol]
x2 = 0.0872	0.132
x2 = 0.1735	0.225
x2 = 0.2499	0.299
x2 = 0.3159	0.351
x2 = 0.3746	0.383
x2 = 0.433	0.404
x2 = 0.4869	0.414
x2 = 0.534	0.416
x2 = 0.5836	0.412
x2 = 0.6005	0.406
x2 = 0.6419	0.393
x2 = 0.6885	0.374
x2 = 0.7366	0.346
x2 = 0.7846	0.31
x2 = 0.8345	0.263
x2 = 0.8779	0.205
x2 = 0.9237	0.141
x2 = 0.9619	0.0734
